The values below come from US7176224B2, “Oxazolyl-aryloxyacetic acid derivatives and their use as PPAR agonists” (Eli Lilly and Company, priority 2000, dated 2007).

One assay deals with Hu apoAI transgenic mice. Description: Evaluation of triglyceride and cholesterol levels in hu apoAI transgenic mice. The class given is in vivo. The settings on record: 30 mg/kg oral gavage daily for 7 days; serum HDLc FPLC area under the curve, over mice receiving vehicle. How it is done: Five to six week old male mice, transgenic for human apoAI [C57B1/6-tgn(apoa1) 1rub, Jackson Laboratory, Bar Harbor, Me.] were housed five per cage (10″×20″8″ with aspen chip bedding) with food (Purina 5001) and water available at all times. After an acclimation period of 2 weeks, animals were individually identified by ear notches, weighed, and assigned to groups based on body weight. Beginning the following morning, mice were dosed daily by oral gavage for 7 days using a 20 gauge, 1½″ curved disposable feeding needle (Popper & Sons). Treatments were test compounds (30 mg/kg), a positive control (fenofibrate, 100 mg/kg) or vehicle [1% carboxymethylcellulose (w/v)/0.25% Tween80 (w/v); 0.2 ml/mouse]. Prior to termination on day 7, mice were weighed and dosed. Three hours after dosing, animals were anesthetized by inhalation of isoflurane (2–4%; Abbott Laboratories, Chicago, Ill.) and blood obtained via cardiac puncture (0.7–1.0 ml). Whole blood was transferred to serum separator tubes (Vacutainer SST), chilled on ice, and permitted to clot. Serum was obtained after centrifugation at 4° C. and frozen until analysis for triglycerides, total cholesterol, compound levels, and serum lipoprotein profile by fast protein liquid chromatography (FPLC) coupled to an inline detection system. After sacrifice by cervical dislocation, the liver, heart and epididymal fat pads were excised and weighed.
The animals dosed with vehicle had average triglycerides values of 60–80 mg/dl, which were reduced by the positive control fenofibrate (33–58 mg/dl with a mean reduction of 37%). The animals dosed with vehicle had average total serum cholesterol values of 140–180 mg/dl, which were increased by fenofibrate (190–280 mg/dl, with a mean elevation of 41%). […] increased the amount of HDLc (68–96 v-sec with a mean percent increase of 48%).
Glucose was measured colorimetrically using commercially purchased reagents (Sigma #315-500). According to the manufacturers, the procedures were modified from published work (McGowan, M. W., Artiss, J. D., Strandbergh, D. R. & Zak, B. Clin Chem, 20:470–5 (1974) and Keston, A. Specific colorimetric enzymatic analytical reagents for glucose. Abstract of papers 129th Meeting ACS, 31C (1956).); and depend on the release of a mole of hydrogen peroxide for each mole of analyte, coupled with a color reaction first described by Trinder (Trinder, P. Determination of glucose in blood using glucose oxidase with an alternative oxygen acceptor. Ann Clin Biochem, 6:24 (1969)). The absorbance of the dye produced is linearly related to the analyte in the sample. The assays were further modified in our laboratory for use in a 96 well format. Standards (Sigma #339-11, Sigma #16-11, and Sigma #CC0534 for glucose, triglycerides and total cholesterol, respectively), quality control plasma (Sigma # A2034), and samples (2 or 5 μl/well) were measured in duplicate using 200 μl of reagent. An additional aliquot of sample, pipetted to a third well and diluted in 200 μl water, provided a blank for each specimen. Plates were incubated at room temperature (18, 15, and 10 minutes for glucose, triglycerides and total cholesterol, respectively) on a plate shaker (DPC Micormix 5) and absorbance read at 500 nm (glucose and total cholesterol) or 540 nm (triglycerides) on a plate reader (Wallac Victor 1420). Sample absorbances were compared to a standard curve (100–800, 10–500, and 100–400 mg/dl for glucose, triglycerides and total cholesterol, respectively). Values for the quality control sample were always within the expected range and the coefficient of variation for samples was below 10%. All samples from an experiment were assayed at the same time to minimize inter-assay variability.
Serum lipoproteins were separated and cholesterol quantitated with an in-line detection system. Sample was applied to a Superose® 6 HR 10/30 size exclusion column (Amersham Pharmacia Biotech) and eluted with phosphate buffered saline-EDTA at 0.5 ml/min. […]

In a further assay the test system is db/db mice. In words: Evaluation of glucose levels in db/db mice. Type of assay: in vivo. Particulars: 30 mg/kg oral gavage daily for 7 days; 100% = glucose not differing from lean values. The procedure:
Five week old male diabetic (db/db) mice [C57BlKs/j-m +/+ Lepr(db), Jackson Laboratory, Bar Harbor, Me.] or lean littermates (DB/?) were housed 6 per cage (10″20″8″ with aspen chip bedding) with food (Purina 5015) and water available at all times. After an acclimation period of 2 weeks, animals were individually identified by ear notches, weighed, and bled via the tail vein for determination of initial glucose levels. Blood was collected (100 μl) from unfasted animals by wrapping each mouse in a towel, cutting the tip of the tail with a scalpel, and milking blood from the tail into a heparinized capillary tube (Fisher) balanced on the edge of the bench. Sample was discharged into a heparinized microtainer with gel separator (VWR) and retained on ice. Plasma was obtained after centrifugation at 4° C. and glucose measured immediately. Remaining plasma was frozen until the completion of the experiment, when glucose and triglycerides were assayed in all samples. […]
Glucose was measured colorimetrically using commercially purchased reagents (Sigma #315-500). […] The absorbance of the dye produced is linearly related to the analyte in the sample. […] Standards (Sigma #339-11, Sigma #16-11, and Sigma #CC0534 for glucose, triglycerides and total cholesterol, respectively), quality control plasma (Sigma # A2034), and samples (2 or 5 μl/well) were measured in duplicate using 200 μl of reagent. […]

Take `Cc1oc(-c2cccc(-c3cccs3)c2)nc1CCOc1ccc(CC(C)(Oc2ccccc2)C(=O)O)cc1` (centres unmarked) [Example 5, 2-Methyl-3-(4-{2-[5-methyl-2-(3-thiophen-2-ylphenyl)oxazol-4-yl]ethoxy}phenyl)-2-phenoxypropionic acid]: the “% HDLc Increase” value in the assay with Hu apoAI transgenic mice came to 94.5%. The “Glucose Normalisation” value in the assay with db/db mice amounted to 71%.
